Here are results for one molecule from US11655215B2, “Photostabilizing compounds, compositions, and methods” (ELC MANAGEMENT LLC, priority 2018, dated 2023).

Common to all, as to format: physicochemical
Test [1] can be described thus: Fluorescence quenching of retinol (TCSPC fluorescence lifetimes). The settings on record: THF, retinol 0.2 mM, excitation 335 nm, fluorescence at 483 nm; slope of FIG. 2. How it is done:
The THF solutions of retinol at 0.2 mM and Compound 1 at various concentration were measured on OB920 TR-SPC (Edinburgh Analytical Instruments) by time-correlated single photon counting (TCSPC) using a pulsed LED (335 nm, 5 MHz) for excitation (PicoQuant) for the corresponding fluorescence lifetimes. The fluorescence signal was collected at 483 nm.

Test [2] is described as follows: Keto-Avobenzone triplet state quenching (laser flash photolysis, transient absorption). As to conditions: deoxygenated acetonitrile, avobenzone 0.25 mM, 266 nm flash photolysis, monitored at 380 nm; slope of FIG. 3. How it is done:
The deoxygenated acetonitrile solutions of avobenzone at 0.25 mM and Compound 1 at various concentrations were measured for transient absorption on a homebuilt system (Y. Yagci, S. Jockusch and N. J. Turro, Macromolecules, 2007, 40, 4481-4485; hereby incorporated by reference in its entirety). Keto-Avobenzone was generated by photolysis of enol-Avobenzone at 350 nm. Laser flash photolysis of keto-Avobenzone was conducted at 266 nm with 5 ns pulse width as shown below:
The decay traces of the triplet-absorption of keto-Avobenzone was monitored at 380 nm.

Test [3] is described as follows: Singlet oxygen generation quenching, Stern-Volmer, Pp-MeIX in CDCl3. The settings on record: air saturated CDCl3, Pp-MeIX, 532 nm excitation, 1O2 phosphorescence at 1270 nm; slope of FIG. 8B. How it is done:
(§1) Singlet oxygen phosphorescence measurements of the air saturated CDCl3 solutions of the dimethyl ester derivative of PpIX (Pp-MeIX) at the concentration optimal for light absorption and Compound 1 at various concentrations were performed on a modified Fluorolog-3 spectrometer (HORIBA Jobin Yvon) in conjunction with a NIR sensitive photomultiplier tube (H102330A-45, Hamamatsu). A Spectra Physics GCR-150-30 Nd:YAG laser (532 nm, ca. 5 mJ per pulse, 7 ns) was used for pulsed excitation to collect ^1O2 phosphorescence decay traces at 1270 nm which were stored on a digital oscilloscope (TDS 360 from Tektronics). The Stern-Volmer plots of singlet oxygen phosphorescence were illustrated in FIG. 8B. The Stern-Volmer constant Ksv was calculated from the slope of the plot in FIG. 8B to be 14±1 M^−1, which is a direct measurement of the singlet oxygen suppression efficiency of Compound 1.

Test [4] in a line: Singlet oxygen quenching rate constant in acetonitrile (phosphorescence lifetime). As to conditions: air saturated acetonitrile, Pp-MeIX, 1O2 phosphorescence lifetime at 1270 nm; slope of FIG. 9B. As to the method:
as §1, with “acetonitrile” for “CDCl3”, “Tektronics).” for “Tektronics). The Stern-Volmer plots of singlet oxygen phosphorescence were illustrated in FIG. 8B. The Stern-Volmer constant Ksv was calculated from the slope of the plot in FIG. 8B to be 14±1 M^−1, which is a direct measurement of the singlet oxygen suppression efficiency of Compound 1.”

Test [5] is described as follows: Singlet oxygen generation quenching, Stern-Volmer, Pp-MeIX in acetonitrile. As to conditions: air saturated acetonitrile, 532 nm excitation, 1O2 phosphorescence at 1270 nm, slope of FIG. 7. As to the method:
as §1, with “acetonitrile” for “CDCl3”, “7.” for “8B.”, “7” for “8B”, “57±2” for “14±1”

Test [6] is described as follows: PpIX singlet excited state quenching (TCSPC fluorescence lifetimes). The settings on record: acetonitrile, excitation 496 nm, fluorescence at 630 nm; slope of FIG. 5. As to the method:
The acetonitrile solutions of PpIX at a concentration optimal for light absorption and Compound 1 at various concentration were measured on OB920 TR-SPC (Edinburgh Analytical Instruments) by time-correlated single photon counting (TCSPC) using a pulsed LED (496 nm) for excitation (PicoQuant) for the corresponding fluorescence lifetimes. The fluorescence signal was collected at 630 nm.

Test [7] in a line: PpIX triplet state quenching (transient absorption). The settings on record: Argon saturated acetonitrile, 532 nm excitation, transient absorbance at 630 nm; slope of FIG. 4. As to the method:
The Argon saturated acetonitrile solutions of Protoporphyrin IX (PpIX) at a concentration optimal for light absorption and Compound 1 at various concentrations were measured for transient absorption on a homebuilt system (Y. Yagci, S. Jockusch and N. J. Turro, Macromolecules, 2007, 40, 4481-4485; hereby incorporated by reference in its entirety). Triplet lifetimes were measured at 532 nm (7 ns pulse length) and the transient absorbance was monitored at 630 nm.

For `CCCCC(CC)COC(=O)/C(C#N)=C1/c2ccccc2-c2cccnc21` (stereo not shown) [Compound 1], the “bimolecular quenching rate constant Kq of quenching of retinol fluorescence” value in test [1] is on record as “(9.0±0.3)×10^9 M^−1s^−1”. Besides, the “quenching rate constant kq of keto-Avobenzone triplet states” value in test [2] is reported as “(3.5±0.2)×10^9 M^−1s^−1”. The figures for the “Stern-Volmer constant Ksv (singlet oxygen suppression efficiency)” value in test [3] and in test [5] were 14 ± 1 M⁻¹ and 57 ± 2 M⁻¹, respectively. For the same molecule, the “bimolecular quenching rate constant kq of singlet oxygen quenching” value in test [4] is recorded as 1.5±0.1×10^5 M^−1s^−1. In addition, the “bimolecular quenching rate constant Kq of quenching of PpIX fluorescence (singlet excited state)” value in test [6] is on record as 2.5±0.1×10^9 M^−1s^−1. Also, the “quenching rate constant kq of PpIX triplet states” value in test [7] was 2.7±0.1×10^7 M^−1s^−1.
